Laboratory results published in ChEMBL document CHEMBL3739294, “Hydroxylated Daphniphyllum Alkaloids from Daphniphyllum himalense” (J Nat Prod, 2015).

Experiments:
[1] = molecular target: T1, Protein deacetylase HDAC6 (Homo sapiens) (UniProt Q9UBN7); assay: Inhibition of full-length recombinant human HDAC6 expressed in insect High5 cells using Boc-Lys(-acetyl)-AMC as substrate incubated for 3 hrs; parameters: concentration or dose not given beside the values; conditions: concentration not given here
T1 sequence (whole entry): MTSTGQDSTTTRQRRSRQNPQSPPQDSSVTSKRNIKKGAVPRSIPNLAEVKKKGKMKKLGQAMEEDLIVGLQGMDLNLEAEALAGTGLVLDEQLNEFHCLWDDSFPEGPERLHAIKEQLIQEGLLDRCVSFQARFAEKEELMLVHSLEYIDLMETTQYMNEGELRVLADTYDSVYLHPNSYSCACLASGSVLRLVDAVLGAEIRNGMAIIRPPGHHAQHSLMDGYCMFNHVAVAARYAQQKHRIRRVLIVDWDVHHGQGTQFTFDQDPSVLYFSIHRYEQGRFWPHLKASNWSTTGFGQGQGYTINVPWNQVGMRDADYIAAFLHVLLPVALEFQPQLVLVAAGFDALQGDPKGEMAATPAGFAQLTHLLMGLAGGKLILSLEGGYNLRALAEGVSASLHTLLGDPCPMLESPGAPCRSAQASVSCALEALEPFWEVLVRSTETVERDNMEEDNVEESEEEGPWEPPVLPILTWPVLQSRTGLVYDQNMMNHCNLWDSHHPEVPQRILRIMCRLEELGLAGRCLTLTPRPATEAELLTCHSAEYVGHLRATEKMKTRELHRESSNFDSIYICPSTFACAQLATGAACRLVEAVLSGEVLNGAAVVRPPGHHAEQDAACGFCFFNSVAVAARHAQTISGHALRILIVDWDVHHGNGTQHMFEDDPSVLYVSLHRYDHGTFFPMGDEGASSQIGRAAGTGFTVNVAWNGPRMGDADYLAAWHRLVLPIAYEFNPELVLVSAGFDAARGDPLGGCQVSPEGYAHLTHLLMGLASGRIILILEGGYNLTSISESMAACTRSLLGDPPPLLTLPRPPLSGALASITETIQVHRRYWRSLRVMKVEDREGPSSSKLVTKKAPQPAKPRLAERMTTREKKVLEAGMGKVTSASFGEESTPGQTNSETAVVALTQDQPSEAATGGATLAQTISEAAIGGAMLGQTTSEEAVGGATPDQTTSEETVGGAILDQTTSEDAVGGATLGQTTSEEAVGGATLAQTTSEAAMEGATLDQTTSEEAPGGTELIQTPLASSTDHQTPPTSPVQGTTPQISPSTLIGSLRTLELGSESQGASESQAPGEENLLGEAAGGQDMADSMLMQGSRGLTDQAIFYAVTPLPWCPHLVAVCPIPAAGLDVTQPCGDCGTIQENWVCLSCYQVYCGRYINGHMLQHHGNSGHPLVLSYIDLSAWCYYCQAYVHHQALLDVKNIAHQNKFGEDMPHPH

[2] = molecular target: T2, Tyrosine-protein phosphatase non-receptor type 1 (Homo sapiens) (UniProt P18031); assay: Inhibition of PTP1B (unknown origin) using pNPP as substrate at 20 ug/ml measured for 3 mins by colorimetric assay
T2 sequence (whole entry): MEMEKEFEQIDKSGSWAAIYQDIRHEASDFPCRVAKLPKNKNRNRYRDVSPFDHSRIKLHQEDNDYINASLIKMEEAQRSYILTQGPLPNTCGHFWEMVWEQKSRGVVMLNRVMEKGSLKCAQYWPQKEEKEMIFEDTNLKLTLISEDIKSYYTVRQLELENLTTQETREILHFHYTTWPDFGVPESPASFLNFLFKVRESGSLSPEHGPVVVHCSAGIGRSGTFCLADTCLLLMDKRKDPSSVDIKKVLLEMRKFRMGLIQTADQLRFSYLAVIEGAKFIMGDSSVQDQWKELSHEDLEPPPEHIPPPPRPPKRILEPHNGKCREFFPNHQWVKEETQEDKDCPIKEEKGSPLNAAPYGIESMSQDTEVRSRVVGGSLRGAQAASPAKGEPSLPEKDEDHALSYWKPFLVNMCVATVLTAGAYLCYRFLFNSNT

[3] = molecular target: Tyrosine-protein phosphatase non-receptor type 1, PTP1B (Homo sapiens) (UniProt P18031); assay: Inhibition of human PTP1B protein expressed in insect High5 cells by Z-LYTE kinase assay; conditions: concentration not given here
[4] = molecular target: T3, Aurora kinase A (Homo sapiens) (UniProt O14965); assay: Inhibition of aurora kinase A (unknown origin) incubated for 60 mins by fluorescence analysis
T3 sequence (whole entry): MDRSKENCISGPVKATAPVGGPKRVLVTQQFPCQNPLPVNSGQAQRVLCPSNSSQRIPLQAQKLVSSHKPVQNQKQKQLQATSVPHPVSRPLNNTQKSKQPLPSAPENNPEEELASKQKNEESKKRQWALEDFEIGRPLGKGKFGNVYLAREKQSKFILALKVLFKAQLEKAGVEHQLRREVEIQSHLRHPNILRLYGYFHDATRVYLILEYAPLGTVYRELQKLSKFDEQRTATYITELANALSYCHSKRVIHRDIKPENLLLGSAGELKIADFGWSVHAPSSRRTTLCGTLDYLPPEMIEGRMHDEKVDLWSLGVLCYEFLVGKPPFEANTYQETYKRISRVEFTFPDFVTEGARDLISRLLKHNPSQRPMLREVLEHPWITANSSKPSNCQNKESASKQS

| Compound | inhibition [1] [%] | other results |
| --- | --- | --- |
| C[C@@H]1CN2C[C@H]3CCC4=C5C(=CC[C@@]56C(=O)[C@H]1C[C@@H]2[C@@]36C)[C@@H](O)C4 | < 10 |  |
| COC(=O)C1=C2C[C@H](O)C3=C2[C@@]2(C1)C(=O)[C@H]1C[C@H]4N(C[C@@H](CC3)[C@]42C)C[C@H]1C | < 10 | inhibition [2]: 40% |
| C[C@@H]1CN2C[C@H]3CC[C@@H]4C(=O)C=C5CC[C@@]6(C(=O)[C@H]1C[C@@H]2[C@@]36C)[C@@]54O | < 10 | inhibition [2]: 40%; inhibition [3]: 44% |
| COC(=O)[C@@H]1C[C@@]23C(=O)[C@H]4C[C@H]5N(C[C@@H](C[C@@H](O)C6=C2[C@@H]1CC6)[C@]53C)C[C@H]4C | < 10 |  |
| C[C@@H]1CN2C[C@H]3CC[C@]4(O)C[C@H](O)C5=C4[C@@]4(CC5)C(=O)[C@H]1C[C@@H]2[C@@]34C | < 10 |  |
| COC(=O)[C@@H]1C[C@@]23C(=O)[C@H]4C[C@H]5N(C[C@@H](CCC6=C2[C@@H]1C[C@H]6O)[C@]53C)C[C@H]4C | < 10 |  |
| COC(=O)[C@@H]1C[C@@]23C(=O)[C@H]4C[C@H]5N(C[C@H]4C)C[C@@H]([C@H](O)CC4=C2[C@@H]1CC4)[C@]53C | < 10 |  |

Further lines, with some results ahead:

| inhibition [1] [%] | Compound | other results |
| --- | --- | --- |
| < 10 | COC(=O)[C@@H]1C[C@@]23C(=O)[C@H]4C[C@H]5N(C[C@H]4C)C[C@@H]([C@@H](O)CC4=C2[C@@H]1CC4)[C@]53C |  |
| < 10 | COC(=O)[C@@H]1C[C@@]23C(=O)[C@H]4C[C@H]5N(C[C@@H](C[C@H](O)C6=C2[C@@H]1CC6)[C@]53C)C[C@H]4C |  |
| < 10 | COC(=O)[C@@H]1C[C@@]23C(=O)[C@H]4[C@H](O)[C@H]5N(C[C@@H](CCC6=C2[C@@H]1CC6)[C@]53C)C[C@H]4C |  |
| < 10 | C[C@@H]1CN2C[C@H]3CC[C@H](O)[C@@H]4C(CCO)=C(C(=O)O)C[C@@]45C(=O)[C@H]1C[C@@H]2[C@@]35C |  |
| < 10 | COC(=O)C1=C2CCC3=C2[C@@]2(C1)C(=O)[C@H]1C[C@@]4(O)N(C[C@@H](CC3)[C@@]24C)C[C@H]1C | inhibition [4]: > 30% |
| < 10 | C[C@@H]1CN2C[C@H]3CC[C@H](O)[C@@H]4C5=C(C[C@@]46C(=O)[C@H]1C[C@@H]2[C@@]36C)C(=O)OCC5 |  |
